How the values were obtained:
[1] = Zeta-potential measurement of peptide/pDNA complexes; type: physicochemical; settings: peptide/pDNA complex, laser-Doppler electrophoresis, 10 mM Hepes pH 7.3, 25 °C, mean ± SD of 3 measurements
Description: (§1) The ability of peptides F-1–F-4 to deliver pDNA was evaluated using complexes between the peptides and pDNA in 10 mM Hepes buffer (pH 7.3). The zeta potentials and sizes of the peptide/pDNA complexes prepared at various charge ratios were determined (Table 2). The size of the F-1 peptide/pDNA complexes at a charge ratio of 2 was 3364 nm, and the sizes decreased with an increase in the charge ratios (Table 2). The sizes of the peptide/pDNA complexes were in the order of several hundred nm, which is considered to be a useful size for the delivery of pDNA, except for the complex with F-1 at N/P = 2, which was defined as the residual molar ratio of the amino groups in polycations of peptides (N) to the phosphate groups in pDNA (P). […] Thus, we examined the complexes of F-1–F-4 at N/P = 8 to evaluate the effect of the stapling of TP10 on the ability to deliver pDNA.
(§2) Each 1 mM peptide solution in DMSO and pDNA was dissolved separately in 10 mM Hepes buffer (pH 7.3). To form peptide/pDNA complexes, peptide solutions of various concentrations were added to the pDNA solution in 2-fold excess. The final pDNA concentration was adjusted to […]. After the complex solutions were stored at room temperature for 15 min, the complex solutions were added. The charge ratio was defined as the residual molar ratio of the amino group of amino acid in the peptide to the phosphate group in the pDNA.
(§3) The zeta-potentials of the peptide/pDNA complexes in 10 mM Hepes buffer (pH 7.3) were evaluated by the laser-Doppler electrophoresis method using Nano ZS (ZEN3600, Malvern Instruments, Ltd., Malvern, UK) with a He–Ne ion laser (633 nm). Light scattering data were obtained at a detection angle of 173° and temperature of 25 °C, and were subsequently analyzed by the cumulant method to obtain the hydrodynamic diameters, polydispersity indices (PDI) (m/G^2) and zeta-potential of the complexes. Results were presented as the mean and standard deviation of 3 measurements (Table 2).

[2] = CD spectroscopy, secondary structure (R value); type: physicochemical; settings: 10% acetonitrile in 20 mM phosphate buffer pH 7.4, peptide 50 µM, ratio of CD signal intensities at 222 and 208 nm
Description: CD measurements were performed to analyze the preferred secondary structures of the synthesized peptides F-1–F-4 (10% acetonitrile in 20 mM phosphate buffer, pH 7.4) (Figure 2). […] These characteristic Cotton effects indicated the presence of a helical structure in F-1. […] To further evaluate the dominant secondary structures of the peptides, a parameter called the R value (θ222/θ208) was calculated. The R value represents the ratio of the CD signal intensities at 222 nm and 208 nm, respectively. For the peptides F-1, F-2, F-3, and F-4, the R values were determined to be 0.72, 1.83, 0.95, and 1.58, respectively. Based on previous studies, these R values indicate that the dominant secondary structures of all the peptides were α-helices.
CD spectra were recorded with a JASCO J-1100 CD spectrometer using a 1.0 mm path length cell. The data are expressed in terms of [θ]; i.e., total molar ellipticity (deg cm^2 dmol^−1). Peptides were dissolved in 10% MeCN in 20 mM phosphate buffer solution at 50 µM concentrations. Each parameter was: wavelength: 190–260 nm; bandwidth: 1 nm; response: 1 s; speed: 50 nm min^−1; accumulations: 3 times; and path length: […].

HEK293 cells [3] = experiment: Cellular-uptake mechanism: endocytosis inhibitors and 4 °C; type: cell-based; settings: peptide 5 µM, flow cytometry
From the text: To inhibit specific endocytic pathways, three different inhibitors were used: amiloride, nystatin, and sucrose. Each inhibitor targets a distinct endocytic pathway: amiloride inhibits […] (a form of endocytosis where cells engulf fluid and solutes); nystatin inhibits caveolae-mediated endocytosis (a process involving small invaginations in the cell membrane called caveolae); and sucrose inhibits clathrin-mediated endocytosis (a mechanism in which the protein clathrin forms coated pits on the cell surface to internalize molecules). As a control, a peptide called nona-arginine (R9) with CF […] was used. This peptide is known to enter cells via endocytosis. The uptake of CF-R9 with that of the parent peptide F-1 and the stapled peptide F-3 was compared.
HEK293 cells were seeded in 24-well plates at a density of 200,000 cells/well and cultured in DMEM for 23 h. After the medium had been replaced with fresh medium containing 10% FBS in the absence or presence of amiloride (5 mM), sucrose (0.4 M), or nystatin (25 μg/mL), the cells were pre-incubated at 37 °C for 30 min. Then, the cells were treated with the relevant peptide (peptide concentration; 5 µM) and incubated for 30 min at 37 °C. […] Then, the cells were analyzed by a BD accuri C6 Plus flow cytometer (BD Bioscience, New Jersey). […]

pDNA = experiment: Displacement assay with dextran sulfate (gel retardation); type: physicochemical; settings: N/P = 8, 100 ng pDNA, 30 min at 37 °C, agarose gel
Description: (§4) The intracellular uptake of Cy5-labeled pDNA complexed with peptides F-1–F-4 was evaluated in […] cells. The fluorescence intensity of Cy5 incorporated into […] was quantified using flow cytometry at 24 h after administration (Figure 5). […] The stability of the peptide/pDNA complex was then evaluated by adding the negatively charged competitive inhibitor, dextran sulfate.
Complex with 100 ng of pDNA and peptide at N/P ratio = 8 were incubated for 30 min at 37 °C in the presence of dextran sulfate (sodium salt, Wako, Japan) at various concentrations ranging 0, 0.05, 0.1, 0.5, and 1 mg/mL. After the incubation, the samples were analyzed on agarose gel and the gel was stained with SYBR Gold (Thermo Fisher Scientific, Waltham, MA, USA).
Figure S1. Cellular uptake of peptide/Cy5-pDNA complexes at N/P = 8 with HEK293 cells. Cellular uptake ability was determined by flow cytometry. The cells were excited with a 488 nm light from an LD laser for detecting FAM-p eptide. Error bars represent the mean±standard deviation, n = 4.
Dextran sulfate Dextran sulfate Dextran sulfate Dextran sulfate […]
Figure S2. Physicochemical characterization of peptide/pDNA complexes at N/P = 8 with dextran sulfate. Gel retardation assay for evaluation of the stability and the dissociation of the peptide/pDNA complexes upon treatment with dextran sulfate at different concentrations ranging from 0 to 1 mg/mL. […]

HEK293 cells [4] = experiment: Cellular uptake of peptide/Cy5-pDNA complexes by flow cytometry; type: cell-based; settings: peptide/Cy5-pDNA complex at N/P = 8, HEK293 cells, flow cytometry 488 nm excitation, n = 4 (Figure S1)
Description: as §4
Figure 5 Cellular uptake of peptide/Cy5-pDNA complexes at N/P = 8 in HEK293 cells. The cellular uptake ability was determined by flow cytometry. The cells were excited with a 635 nm light for detecting Cy5-pDNA. Error bars represent the mean ± standard deviation, n = 4.
as §2, with “The charge ratio was defined as the residual molar ratio of the amino group of amino acid in the peptide to the phosphate group in the pDNA.” left out
HEK293 cells were seeded on 24-well culture plates (100,000 cells/well) and incubated overnight in 500 μL of DMEM. […] The cell pellets obtained were suspended in PBS and the cells were analyzed by a BD accuri C6 Plus flow cytometer (BD Bioscience, New Jersey).
Figure S1. […] Cellular uptake ability was determined by flow cytometry. […]

[5] = DLS measurement of peptide/pDNA complexes (size, PDI); type: physicochemical; settings: peptide/pDNA complex, mean ± SD of 3 measurements; for Size: cumulant method
Description: as §1, §2, §3

[6] = N/P ratio 2, 10 mM Hepes pH 7.3, 25 °C
[7] = N/P ratio 4, 10 mM Hepes pH 7.3, 25 °C
[8] = N/P ratio 8, 10 mM Hepes pH 7.3, 25 °C

“CF-XAGYLLGKINLKALAAS5*AKKS5*L (sidechain bridge or staple) [F-3, C-terminal stapled TP10 analog, Leu and Ile replaced with S5 residues, CF-labelled]” gave a Zeta-Potential ([1]; N/P ratio 2) of 22.9 ± 1.1 mV, a Zeta-Potential ([1]; N/P ratio 4) of 18.0 ± 1.7 mV and a Zeta-Potential ([1]; N/P ratio 8) of 20.6 ± 3.0 mV. For the same substance, the “R value (θ222/θ208)” value [2] was 0.95, the “cellular uptake when incubated at 4 °C” value (HEK293 cells [3]; 30 min at 4 °C compared with 37 °C) was “significantly inhibited” and the “cellular uptake when treated with endocytosis inhibitors” value (HEK293 cells [3]; 30 min at 37 °C after 30 min pre-incubation with amiloride (5 mM), sucrose (0.4 M) or nystatin (25 μg/mL), n=3) was “significantly inhibited”. The “concentration of dextran sulfate at which the peptide/pDNA complex dissociated” value (pDNA; dextran sulfate 0, 0.05, 0.1, 0.5, 1 mg/mL, SYBR Gold (Figure S2)) was 0.5 mg/mL, the “stability of the peptide/pDNA complex against dextran sulfate” value (pDNA; dextran sulfate 0-1 mg/mL) was “less stable than the other complexes” and the “fluorescence from peptide detected by CF after adding peptide/Cy5-pDNA complex” value (HEK293 cells [4]) was “strongest fluorescence”. The Size [5, 6] was 391 ± 8 nm, the PDI [5, 6] was 0.417 ± 0.049 and the Size [5, 7] was 352 ± 57 nm. It also gave a PDI [5, 7] of 0.366 ± 0.054, a Size [5, 8] of 324 ± 53 nm and a PDI [5, 8] of 0.399 ± 0.083.

Reference: publication PMC10380766, “Development of Hydrophobic Cell-Penetrating Stapled Peptides as Drug Carriers” (International Journal of Molecular Sciences, 2023)
